Values belong to the compound of their own block, whether it stands above or below them.
What was measured:
PSMA [1] = molecular target: T1, PSMA (Homo sapiens, UniProt Q04609); experiment: Competitive binding assay against ^125I-MIP-1095 in 22Rv1 cells; settings: for Ki: 22Rv1 cells, converted from IC50 with the Cheng–Prusoff equation using Kd of MIP-1095; for IC50: cold forms, PSMA-expressing 22Rv1 cells, 1 h, 37 °C
T1 construct: host or cells: 22Rv1 human prostate cancer cells (intact cells)
Method: The 22Rv1 cells (1 × 10^6 cells/well, 48-well plate) were washed with phosphate-buffered saline (PBS), and the culture medium was substituted with RPMI-1640 medium containing 1% bovine serum albumin. The cells were incubated for 1 h at 37 °C and 5% CO2 with unlabeled cudotadipep or cunotadipep (1.00 × 10^−4–1.00 × 10^−10 M) or 0.09–0.1 nM ^125I-(S)-2-(3-((S)-1-carboxy-5-(3-(4-iodophenyl)ureido)pentyl)ureido)pentanedioic acid (^125I-MIP-1095). The cells were washed twice in cold PBS and collected via centrifugation (2000 rpm, 5 min). Radioactivity was measured using 2480 WIZARD2 gamma counter (Perkin Elmer, Waltham, MA, USA). IC50 was calculated using Microsoft Excel and converted to Ki, using the Cheng–Prusoff equation [21].

PC3-PIP (PSMA+) cells = experiment: Cell uptake in PC3-PIP cells; type: cell-based, human; settings: as given in the abstract
Method: PC3-PIP or PC3-flu cells (1 × 10^6) were mixed with 3.7 MBq (100 μCi) of ^64Cu-cudotadipep or ^64Cu-cunotadipep and incubated at 37 °C and 5% CO2 for 2 h. Following incubation, the cells were washed with PBS twice and collected via centrifugation (2000 rpm, 5 min). Radioactivity was measured using 2480 WIZARD2 gamma counter (Perkin Elmer, Waltham, MA, USA). Percent (%) uptake was calculated using the ratio between the radioactivity of the cells and treated radioactivity.

PSMA [2] = molecular target: T1, PSMA; experiment: Saturation binding assay of ^125I-MIP-1095 in 22Rv1 cells; settings: saturation binding test
Method: The dissociation constant (Kd) of MIP-1095 was determined via a saturation binding assay. The saturation binding assay was performed as performed in a previous study. Briefly, the 22Rv1 cells (2 × 10^5) were aliquoted into wells in a 24-well plate and incubated with 0.7–17.5 nM (0.0037–0.1332 MBq) of ^125I-MIP-1095 at 37 °C for 1 h. To prevent nonspecific binding, 500 μM unlabeled MIP was added. Radioactivity was measured using 2480 WIZARD2 gamma counter (Perkin Elmer, Waltham, MA, USA). Statistical analysis was performed using Microsoft Excel.

[3] = ^18F-labeled PSMA compounds; cited from earlier work

T1 sequence (Q04609 whole entry): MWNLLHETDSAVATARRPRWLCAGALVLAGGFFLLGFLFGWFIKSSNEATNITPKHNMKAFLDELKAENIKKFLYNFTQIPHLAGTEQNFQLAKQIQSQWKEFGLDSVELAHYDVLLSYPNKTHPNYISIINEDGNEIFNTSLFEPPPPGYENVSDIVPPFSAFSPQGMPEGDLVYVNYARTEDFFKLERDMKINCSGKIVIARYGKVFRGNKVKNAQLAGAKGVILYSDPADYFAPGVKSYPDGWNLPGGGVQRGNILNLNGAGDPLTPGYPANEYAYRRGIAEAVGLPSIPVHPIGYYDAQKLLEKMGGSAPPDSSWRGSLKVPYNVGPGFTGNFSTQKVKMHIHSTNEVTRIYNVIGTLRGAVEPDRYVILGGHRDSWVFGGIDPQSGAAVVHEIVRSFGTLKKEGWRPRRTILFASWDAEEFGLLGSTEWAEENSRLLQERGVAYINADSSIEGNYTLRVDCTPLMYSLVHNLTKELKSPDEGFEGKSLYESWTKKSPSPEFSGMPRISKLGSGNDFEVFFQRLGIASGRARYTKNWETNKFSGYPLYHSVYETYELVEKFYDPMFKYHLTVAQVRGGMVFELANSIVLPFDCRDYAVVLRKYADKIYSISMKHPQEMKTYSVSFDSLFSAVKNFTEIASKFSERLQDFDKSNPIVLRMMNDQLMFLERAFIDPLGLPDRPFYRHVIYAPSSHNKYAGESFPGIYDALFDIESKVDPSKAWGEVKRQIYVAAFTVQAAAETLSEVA

Ki (PSMA [1]): 6.75 ± 0.42 nM
IC50 (PSMA [1]): 16.8 ± 1.05 nM
Structure (SMILES): O=C([O-])CN1CCN(CC(=O)[O-])CCN(CC(=O)N[C@@H](CCCCNC(=O)CCCc2ccc(I)cc2)C(=O)NCCOCCOCC(=O)N(CCCC[C@H](NC(=O)N[C@@H](CCC(=O)O)C(=O)O)C(=O)O)CC(=O)O)CCN(CC(=O)[O-])CC1.[Cu+2] [Cu-cudotadipep]
cellular uptake (PC3-PIP (PSMA+) cells): 2.93 ± 0.06 %/1 × 10^6 cells

Ki (PSMA [1]): 2.17 ± 0.25 nM
IC50 (PSMA [1]): 5.42 ± 0.64 nM
Structure (SMILES): O=C([O-])CN1CCN(CC(=O)[O-])CCN(CC(=O)N[C@@H](CCCCNC(=O)CCCc2ccc(I)cc2)C(=O)NCCOCCOCC(=O)N(CCCC[C@H](NC(=O)N[C@@H](CCC(=O)O)C(=O)O)C(=O)O)CC(=O)O)CC1.[Cu+2] [Cu-cunotadipep]
cellular uptake (PC3-PIP (PSMA+) cells): 6.02 ± 0.05 %/1 × 10^6 cells

Bmax (PSMA [2]): 0.25 nM
Kd (PSMA [2]): 0.13 nM
Structure (SMILES): O=C(O)CC[C@H](NC(=O)N[C@@H](CCCCNC(=O)Nc1ccc(I)cc1)C(=O)O)C(=O)O [MIP-1095, ^125I-(S)-2-(3-((S)-1-carboxy-5-(3-(4-iodophenyl)ureido)pentyl)ureido)pentanedioic acid]

Structure (SMILES): O=C(O)CC[C@H](NP(=O)(O)OCCC[C@H](NC(=O)CC[C@H](NC(=O)CCCCCNC(=O)c1ccc([18F])cc1)C(=O)O)C(=O)O)C(=O)O [^18F-CTT1057]
effective dose [3]: 2.28 × 10^−2 mSv/MBq

Structure (SMILES): O=C(O)CC[C@H](NC(=O)N[C@@H](CCCCNC(=O)c1ccc([18F])nc1)C(=O)O)C(=O)O [^18F-DCFPyL]
effective dose [3]: 1.65 × 10^−2 mSv/MBq

Structure (SMILES): O=C([O-])CN(CCN(CC(=O)[O-])Cc1cc(CCC(=O)NCCCCCC(=O)NCCCC[C@H](NC(=O)N[C@@H](CCC(=O)O)C(=O)O)C(=O)O)ccc1O)Cc1cc(CCC(=O)O)ccc1O.[18F-].[Al+3] [^18F-PSMA-11]
effective dose [3]: 1.28 × 10^−2 mSv/MBq

Structure (SMILES): O=C(O)CC[C@H](NC(=O)N[C@@H](CCCCNC(=O)[C@H](Cc1ccc2ccccc2c1)NC(=O)c1ccc(CNC(=O)[C@H](CCC(=O)O)NC(=O)[C@H](CCC(=O)O)NC(=O)c2ccc([18F])nc2)cc1)C(=O)O)C(=O)O [^18F-PSMA-1007]
effective dose [3]: 2.20 × 10^−2 mSv/MBq

From publication PMC10453766, “Comparison of the Effects of DOTA and NOTA Chelators on ^64Cu-Cudotadipep and ^64Cu-Cunotadipep for Prostate Cancer” (Diagnostics, 2023)
